# In PubChem BioAssay AID262 (DTP/NCI, 2004):
# Tested on: LX-1 lung xenograft sc, nude mice, tumor weight
# Assay: NCI In Vivo Anticancer Drug Screen. Data for tumor model Human Lung LX-1 Xenograft (subcutaneous) in NU/NU Swiss (nude) mice
# Conditions: endpoint: optimum tumor weight change, higher = larger tumour
# Description: The antitumor activity of compounds was measured in mice bearing transplantable tumors. Survival or tumor size were measured and the results are expressed as the measurement made in the treated group (T) divided by the measurement made in the vehicle treated control group (C). The tumor model used in this assay is Human Lung LX-1 Xenograft (subcutaneous) in NU/NU Swiss (nude) mice
smiles,measurement,setting,value
CN(C)c1nc(N(C)C)nc(N(C)C)n1,T/C,"dose: 60.0 mg/kg/injection, schedule: Q01DX005 (ip), vehicle: Klucel (hydroxypropylcellulose) (HPC)",71 % of control
same,T/C,"dose: 60.0 mg/kg/injection, schedule: Q07DX005 (ip), vehicle: Klucel (hydroxypropylcellulose) (HPC)",188 % of control
same,T/C,"dose: 120.0 mg/kg/injection, schedule: Q01DX005 (ip), vehicle: Klucel (hydroxypropylcellulose) (HPC)",85 % of control
same,T/C,"dose: 120.0 mg/kg/injection, schedule: Q07DX005 (ip), vehicle: Klucel (hydroxypropylcellulose) (HPC)",78 % of control
COC1C(C)OC(OC2CC(C)(O)Cc3cc4c(c(O)c32)C(=O)c2c(O)cc3c(c2C4=O)OC2OC3(C)C(O)C(N(C)C)C2O)C(OC)C1(C)OC (centres undefined),T/C,"dose: 2.5 mg/kg/injection, schedule: Q04DX003 (ip), vehicle: Klucel (hydroxypropylcellulose) (HPC)",69 % of control
same,T/C,"dose: 5.0 mg/kg/injection, schedule: Q04DX003 (ip), vehicle: Klucel (hydroxypropylcellulose) (HPC)",75 % of control
same,T/C,"dose: 10.0 mg/kg/injection, schedule: Q04DX003 (ip), vehicle: Klucel (hydroxypropylcellulose) (HPC)",56 % of control
same,T/C,"dose: 20.0 mg/kg/injection, schedule: Q04DX003 (ip), vehicle: Klucel (hydroxypropylcellulose) (HPC)",38 % of control
C[n+]1c(-c2cccc3ccccc23)c2cc(N)ccc2c2ccccc21,T/C,"dose: 0.75 mg/kg/injection, schedule: Q04DX003 (ip), vehicle: saline",61 % of control
same,T/C,"dose: 1.5 mg/kg/injection, schedule: Q04DX003 (ip), vehicle: saline",57 % of control
CC(C)=CCNc1ncnc2c1ncn2C1OC(CO)C(O)C1O (centres undefined),T/C,"dose: 200.0 mg/kg/injection, schedule: Q04DX003 (ip), vehicle: suspension in saline",150 % of control
CSc1cc(=O)n2c3ccccc3c3ccnc1c32,T/C,"dose: 20.0 mg/kg/injection, schedule: Q04DX003 (ip), vehicle: saline with Tween-80",92 % of control
same,T/C,"dose: 40.0 mg/kg/injection, schedule: Q04DX003 (ip), vehicle: saline with Tween-80",71 % of control
same,T/C,"dose: 80.0 mg/kg/injection, schedule: Q04DX003 (ip), vehicle: saline with Tween-80",93 % of control
same,T/C,"dose: 160.0 mg/kg/injection, schedule: Q04DX003 (ip), vehicle: saline with Tween-80",92 % of control
Cn1cnc([N+](=O)[O-])c1[Se]c1nc(N)nc2nc[nH]c12,T/C,"dose: 25.0 mg/kg/injection, schedule: Q04DX003 (ip), vehicle: water",77 % of control
same,T/C,"dose: 50.0 mg/kg/injection, schedule: Q04DX003 (ip), vehicle: water",54 % of control
same,T/C,"dose: 100.0 mg/kg/injection, schedule: Q04DX003 (ip), vehicle: water",49 % of control
CCN(C)N=Nc1ccc(C(N)=O)cc1,T/C,"dose: 25.0 mg/kg/injection, schedule: Q04DX003 (ip), vehicle: Klucel (hydroxypropylcellulose) (HPC)",67 % of control
same,T/C,"dose: 50.0 mg/kg/injection, schedule: Q04DX003 (ip), vehicle: Klucel (hydroxypropylcellulose) (HPC)",9 % of control
same,T/C,"dose: 200.0 mg/kg/injection, schedule: Q04DX003 (ip), vehicle: Klucel (hydroxypropylcellulose) (HPC)",-60 % of control
Cc1c(CNc2ccc(C(=O)NC(CC(=O)O)C(=O)O)cc2)ccc2nc(N)nc(N)c12 (centres undefined),T/C,"dose: 6.0 mg/kg/injection, schedule: Q04DX003 (ip), vehicle: saline with Tween-80",63 % of control
same,T/C,"dose: 12.0 mg/kg/injection, schedule: Q04DX003 (ip), vehicle: saline with Tween-80",94 % of control
same,T/C,"dose: 24.0 mg/kg/injection, schedule: Q04DX003 (ip), vehicle: saline with Tween-80",81 % of control
